Earlier results, collected in US10487097B2, “4,6-di-(O-thiophosphate)-inositol-1,2,3,5-tetra-O-sulfate for C. difficile infection” (priority 2015, dated 2019).

Settings: colon lumen, background statement

Q: Which “precipitation due to high calcium concentration” value does the source give for `O=P(O)(O)O[C@H]1[C@H](OP(=O)(O)O)[C@@H](OP(=O)(O)O)[C@H](OP(=O)(O)O)[C@@H](OP(=O)(O)O)[C@H]1OP(=O)(O)O` [IP6, inositol hexakisphosphate] here?
A: Its value is “precipitates”.
